{"source": "patent US8044098B2", "about": "“Use of hydroxybenzoic acids and their esters and analogues for preventing or treating virus infection” (Shenghua Guangzhou Pharmaceutical Science & Technology Co., …, priority 2005, dated 2011)", "key": {"[1]": {"system": "secretion of HBsAg by 2.2.15 cells", "assay": "Inhibition of secretion of HBsAg by Hepatitis B 2.2.15 cell line", "format": "cell-based, HBV", "conditions": "1 μmol/ml", "description": "Hepatitis B 2.2.15 cell line was transfected by HBV DNA (purchased from Institute of Biochemistry and Cell Biology of Shanghai Institute for Biological Sciences or the National Center for Drug Screening) and used as the cell model for screening anti-HBV drug compounds (See Chinese Journal Of Integrated Traditional and Western Medicine on Liver Diseases, 2004, 14(3): 158). The cell culture medium DMEM (GIBCO Company), bovine serum (Hangzhou Siji Qing Biochemical Manufacturer), G418 (GIBCO Company), 3-(4,5-dimethylthiazol-2-yl)-2,5-diphenyltetrazoliumbromide (Sigma), HBsAg and HBeAg diagnostic kit (Shanghai Kehua Bio-engineering Co., Ltd).\nThe test compounds listed in Table 3 below were dissolved in a mixture containing 20 ml 1,2-propylene glycol and 15 ml Tween-80 and diluted with sterile saline water to 2 μmol/ml of the test compound. Then it was mixed with the cell culture medium at equal volume to obtain a solution containing 1 μmol/ml of the tested compound. Cells at the concentration of 1×10^5 cells per milliliter were inoculated to a 24-well plate at 1 ml/well. Supernatant from the cell culture mixture was collected three days later for testing."}, "[2]": {"system": "HSV infection", "assay": "External treatment of HSV infection in clinical tests", "format": "in vivo, human", "conditions": "patients with HSV infection", "description": "Twenty-two patients who were clinically diagnosed with HSV infection were randomly selected and divided into two groups. Acyclovir ointment and micro emulsion containing propyl gallate prepared as described in Example 1 were applied to the two groups, respectively, on the affected areas of the patients three times a day."}, "[3]": {"system": "flat warts", "assay": "Clinical use in treating flat warts", "format": "in vivo, human", "procedure": "5 g propyl gallate was mixed with 40 ml 1,2-propylene glycol and heated to dissolve the ingredients. Then 20 ml Tween-80 and 3 ml azone were added into the mixture and mixed well. Sterile distilled water was added to the mixture to reach a final volume of 100 ml.\nClinically, flat warts were seen as slightly raised, smooth, tan or flesh colored bumps ranging in size from 1-5 mm. They typically appeared on the face, backs of hands and arms.\n32 male and 28 female patients of 15-46 years old, with the average age of 23 years old, were selected for the test. These patients have had flat warts for any time from 2 weeks to 2 years. Some of the patients have tried other treatment methods for the warts. But no one had undertaken any treatment for the warts in the past 4 weeks. And no one had taken any medicine in the past 2 weeks.\nThe patients were randomly divided into two groups of 30 patients each. One group was treated with propyl gallate micro emulsion, the other group with 5% imiquimod cream (made by Sichuan Ming Xin Pharmaceutical Co.), which is a medicine often used for treating flat warts. The test samples were applied to the affected areas of the patient groups three times a day, in the morning, at noon and night. The treatment period was 20 days. The treatment effect was tracked for one year.\n“Recovered”: all warts had disappeared or faded, the skin became flat, no new warts appeared;\n“Obvious Effect”: more than 70% of the warts had disappeared, the bottom of the warts had shrunk, the top of the warts had flattened;\n“Improved”: more than 30% of the warts had disappeared, the top of the warts had flattened;\n“Not Effective”: less than 30% of the warts had disappeared, no change to the warts, or some new warts appeared."}, "[4]": {"conditions": "number of patients of 30 per group, three times a day, 20 days"}}, "data": [{"smiles": "CCCOC(=O)c1cc(O)c(O)c(O)c1", "note": "[Propyl gallate]", "values": [{"measurement": "effect on the secretion of HBsAg by the 2.2.15 cells (in words)", "setting": "[1]", "value": "had inhibition effect"}, {"measurement": "inhibition of HBsAg secretion compared with gallic acid and 3,4-dihydroxybenzoic acid", "setting": "[1]", "value": "more effective"}, {"measurement": "HBsAg Inhibition rate", "setting": "[1]; 2.2.15 cells, supernatant collected three days later", "value": 18.83, "unit": "%"}, {"measurement": "effectiveness in treating HSV infection compared with acyclovir ointment", "setting": "[2]", "value": "more effective"}, {"measurement": "average time for recovery", "setting": "[2]; applied on affected areas three times a day", "value": 3, "unit": "days"}, {"measurement": "effectiveness in treating flat warts compared with 5% imiquimod cream", "setting": "[3]; 20 days treatment", "value": "more effective"}, {"measurement": "recurrence of the warts in recovered patients", "setting": "[3]; followed for a year", "value": "none had recurrence"}, {"measurement": "Recovered", "setting": "[3]; number of patients of 30 per group, applied three times a day, 20 days", "value": 22}, {"measurement": "Improved", "setting": "[3]; [4]", "value": 2}, {"measurement": "Not Effective", "setting": "[3]; [4]", "value": 1}, {"measurement": "Obvious Effect", "setting": "[3]; [4]", "value": 5}, {"measurement": "Effective Rate", "setting": "[3]; patients recovered or with obvious effect, of 30 per group", "value": 90, "unit": "%"}]}]}
